Measured values: patent US20260364184A1, “COMPOUND BASED ON OXOISOINDOLINYL-SUBSTITUTED TETRAHYDROPYRIMIDINE-DIONE AND USE THEREOF” (GLUETACS THERAPEUTICS (SHANGHAI) CO., LTD., priority 2023, published 2026)

Tests used:
Format in all cases: cell-based
Details in all cases: hPBMC Cell; 24 hours
IKZF1 = biological target: T1, IKZF1 (Homo sapiens, UniProt Q13422+Q96SW2); test: Western blot degradation of IKZF1
T1 construct: expression of target proteins in cells; endogenous in cells
Experimental: (§1) Conventional Western blot assay was performed to evaluate the effects of the compounds of the present disclosure on the expression of target proteins in cells.
(§2) (1) Cell Seeding and Protein Harvesting: The selected cells were processed according to the cell seeding procedure and protein harvesting procedure in Table II-2.
(§3) (2) To the collected supernatant, 5×SDS sample loading buffer was added, followed by denaturation at 95 °C for 5 minutes. The denatured samples were then separated by SDS-PAGE electrophoresis on a polyacrylamide gel. Proteins were transferred to a nitrocellulose membrane (0.45 μm NC membrane), blocked with blocking buffer at room temperature for 1 hour, and subjected to antibody incubation and development procedures according to the antibody manufacturer's instructions (Cell Signaling Technology).
(§4) Half-Maximal Degradation Concentration value (the drug concentration required for degrading proteins by 50%, abbreviated as DC50) reads method: comparing the grayscale values of Western blot bands from drug-treated samples with those from blank DMSO-treated controls, and identifying the drug concentration range at which the grayscale value is half that of the DMSO-treated control bands.
(§5) DC50 values can be calculated using ImageJ software to measure grayscale values of Western blot bands from drug-treated samples. The concentration-response curve is fitted to estimate the drug concentration corresponding to half the grayscale value.
(§6) Target protein remaining (%) refers to the percentage of target protein remaining in cells after treatment with protein degrader compounds.
(§7) Calculation method for target protein remaining (%): Use ImageJ software to measure grayscale values of Western blot bands from drug (protein degrader)-treated samples. The grayscale value of drug-treated bands is divided by that of internal control protein bands, and the resulting quotient is normalized to obtain the relative percentage of remaining target protein after protein degrader treatment.
(§8) Target protein degradation rate (%)=1−target protein remaining (%).

IKZF3 = biological target: T2, IKZF3 (Homo sapiens, UniProt Q96SW2+Q9UKT9); test: Western blot degradation of IKZF3
T2 construct: expression of target proteins in cells; endogenous in cells
Experimental: as §1, §2, §3, §4, §5, §6, §7, §8

GSPT1 = biological target: T3, GSPT1 (Homo sapiens, UniProt P15170+Q96SW2); test: Western blot degradation of GSPT1
T3 construct: expression of target proteins in cells; endogenous in cells
Experimental: as §1, §2, §3, §4, §5, §6, §7, §8

WEE1 = biological target: T4, WEE1 (Homo sapiens, UniProt P30291+Q96SW2); test: Western blot degradation of WEE1
T4 construct: expression of target proteins in cells; endogenous in cells
Experimental: as §1, §2, §3, §4, §5, §6, §7, §8

CK1α = biological target: T5, CK1α (Homo sapiens, UniProt P48729+Q96SW2); test: Western blot degradation of CK1α
T5 construct: expression of target proteins in cells; endogenous in cells
Experimental: as §1, §2, §3, §4, §5, §6, §7, §8

IKZF2 = biological target: T6, IKZF2 (Homo sapiens, UniProt Q96SW2+Q9UKS7); test: Western blot degradation of IKZF2
T6 construct: expression of target proteins in cells; endogenous in cells
Experimental: as §1, §2, §3, §4, §5, §6, §7, §8

T6 sequence (Q9UKS7 whole entry): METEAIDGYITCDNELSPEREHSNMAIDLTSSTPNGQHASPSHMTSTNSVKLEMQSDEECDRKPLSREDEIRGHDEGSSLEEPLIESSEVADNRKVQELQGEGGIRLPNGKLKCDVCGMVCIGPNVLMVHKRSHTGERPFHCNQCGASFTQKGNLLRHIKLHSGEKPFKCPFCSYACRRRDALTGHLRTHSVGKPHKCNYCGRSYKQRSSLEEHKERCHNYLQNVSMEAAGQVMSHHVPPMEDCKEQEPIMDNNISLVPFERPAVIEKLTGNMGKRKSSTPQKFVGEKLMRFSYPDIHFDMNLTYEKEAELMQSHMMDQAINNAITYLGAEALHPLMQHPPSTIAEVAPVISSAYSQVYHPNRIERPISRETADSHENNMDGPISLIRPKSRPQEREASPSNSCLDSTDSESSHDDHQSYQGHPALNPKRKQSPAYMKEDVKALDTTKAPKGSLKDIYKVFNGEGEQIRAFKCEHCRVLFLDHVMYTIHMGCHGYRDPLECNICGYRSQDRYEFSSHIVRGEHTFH
T6 sequence (Q96SW2 whole entry): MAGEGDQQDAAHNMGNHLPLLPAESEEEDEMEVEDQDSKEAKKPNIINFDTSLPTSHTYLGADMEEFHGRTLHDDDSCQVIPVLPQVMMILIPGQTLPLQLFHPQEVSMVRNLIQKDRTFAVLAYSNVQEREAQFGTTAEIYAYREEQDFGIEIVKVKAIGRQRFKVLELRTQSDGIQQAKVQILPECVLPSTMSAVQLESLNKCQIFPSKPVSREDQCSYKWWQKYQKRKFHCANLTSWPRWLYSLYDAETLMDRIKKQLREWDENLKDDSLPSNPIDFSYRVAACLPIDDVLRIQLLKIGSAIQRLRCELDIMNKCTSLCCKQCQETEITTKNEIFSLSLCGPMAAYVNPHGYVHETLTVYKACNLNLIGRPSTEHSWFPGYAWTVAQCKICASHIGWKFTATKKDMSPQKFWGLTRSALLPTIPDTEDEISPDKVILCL
T6 sequence (Q16531 whole entry partner): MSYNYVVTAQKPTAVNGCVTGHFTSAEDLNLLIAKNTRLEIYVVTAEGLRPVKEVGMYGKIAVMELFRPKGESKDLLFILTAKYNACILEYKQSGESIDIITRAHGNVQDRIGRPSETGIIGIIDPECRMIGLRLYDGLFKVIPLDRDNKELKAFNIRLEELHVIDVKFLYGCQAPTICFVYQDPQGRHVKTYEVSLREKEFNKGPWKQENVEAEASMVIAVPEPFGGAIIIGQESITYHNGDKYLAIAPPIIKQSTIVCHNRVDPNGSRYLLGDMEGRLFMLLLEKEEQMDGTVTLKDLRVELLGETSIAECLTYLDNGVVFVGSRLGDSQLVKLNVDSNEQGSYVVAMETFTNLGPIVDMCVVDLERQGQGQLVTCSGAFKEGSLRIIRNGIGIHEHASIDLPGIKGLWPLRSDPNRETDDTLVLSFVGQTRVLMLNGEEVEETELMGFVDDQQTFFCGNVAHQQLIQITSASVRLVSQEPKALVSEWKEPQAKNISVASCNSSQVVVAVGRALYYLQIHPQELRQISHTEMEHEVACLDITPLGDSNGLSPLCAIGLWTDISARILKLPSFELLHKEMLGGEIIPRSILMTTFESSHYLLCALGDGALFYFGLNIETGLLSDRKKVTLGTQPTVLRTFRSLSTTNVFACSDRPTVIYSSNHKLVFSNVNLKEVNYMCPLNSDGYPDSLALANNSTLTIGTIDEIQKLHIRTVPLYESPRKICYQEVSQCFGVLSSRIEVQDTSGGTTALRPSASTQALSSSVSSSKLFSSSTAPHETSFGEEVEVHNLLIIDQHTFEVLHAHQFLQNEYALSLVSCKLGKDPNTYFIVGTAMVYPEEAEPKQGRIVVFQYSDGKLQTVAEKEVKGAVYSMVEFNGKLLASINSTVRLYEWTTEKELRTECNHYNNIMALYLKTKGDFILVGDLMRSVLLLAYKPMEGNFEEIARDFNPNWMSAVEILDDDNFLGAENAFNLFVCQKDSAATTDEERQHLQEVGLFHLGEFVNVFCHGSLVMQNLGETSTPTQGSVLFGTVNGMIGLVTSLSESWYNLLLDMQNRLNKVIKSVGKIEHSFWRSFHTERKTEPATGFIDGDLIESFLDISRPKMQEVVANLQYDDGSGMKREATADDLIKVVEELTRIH
T4 sequence (P30291 whole entry): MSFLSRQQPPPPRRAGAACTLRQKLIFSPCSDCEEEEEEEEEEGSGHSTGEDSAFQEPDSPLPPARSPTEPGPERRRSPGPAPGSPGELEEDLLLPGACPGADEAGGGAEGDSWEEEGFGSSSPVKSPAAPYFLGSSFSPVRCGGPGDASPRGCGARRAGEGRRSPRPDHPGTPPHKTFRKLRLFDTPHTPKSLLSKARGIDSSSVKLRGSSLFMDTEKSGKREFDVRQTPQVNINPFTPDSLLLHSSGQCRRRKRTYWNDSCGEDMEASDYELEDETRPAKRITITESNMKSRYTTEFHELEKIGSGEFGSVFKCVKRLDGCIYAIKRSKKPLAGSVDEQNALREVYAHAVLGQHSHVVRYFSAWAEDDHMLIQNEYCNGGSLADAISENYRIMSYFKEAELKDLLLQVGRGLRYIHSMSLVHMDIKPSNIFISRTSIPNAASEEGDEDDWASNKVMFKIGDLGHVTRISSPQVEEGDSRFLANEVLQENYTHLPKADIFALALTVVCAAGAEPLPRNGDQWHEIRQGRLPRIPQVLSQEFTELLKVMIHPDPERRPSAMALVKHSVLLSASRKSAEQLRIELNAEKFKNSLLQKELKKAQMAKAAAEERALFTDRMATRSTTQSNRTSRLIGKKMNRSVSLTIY
T4 sequence (Q96SW2 whole entry): as the sequence (Q96SW2 whole entry) above
T4 sequence (Q16531 whole entry partner): as the sequence (Q16531 whole entry partner) above
T2 sequence (Q9UKT9 whole entry): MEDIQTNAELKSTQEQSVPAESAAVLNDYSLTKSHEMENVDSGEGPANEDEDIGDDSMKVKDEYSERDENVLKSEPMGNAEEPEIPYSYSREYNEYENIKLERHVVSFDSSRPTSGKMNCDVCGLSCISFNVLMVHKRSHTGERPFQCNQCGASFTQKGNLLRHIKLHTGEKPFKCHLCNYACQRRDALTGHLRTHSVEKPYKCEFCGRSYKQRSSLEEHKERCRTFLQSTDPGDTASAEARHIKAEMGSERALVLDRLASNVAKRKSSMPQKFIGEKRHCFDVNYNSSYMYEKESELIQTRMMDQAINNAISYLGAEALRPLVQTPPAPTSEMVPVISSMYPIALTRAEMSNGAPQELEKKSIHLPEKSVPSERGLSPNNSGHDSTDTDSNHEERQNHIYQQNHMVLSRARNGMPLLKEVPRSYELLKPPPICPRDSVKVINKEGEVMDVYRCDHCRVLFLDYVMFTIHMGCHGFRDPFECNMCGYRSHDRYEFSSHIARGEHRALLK
T2 sequence (Q96SW2 whole entry): as the sequence (Q96SW2 whole entry) above
T2 sequence (Q16531 whole entry partner): as the sequence (Q16531 whole entry partner) above
T1 sequence (Q13422 whole entry): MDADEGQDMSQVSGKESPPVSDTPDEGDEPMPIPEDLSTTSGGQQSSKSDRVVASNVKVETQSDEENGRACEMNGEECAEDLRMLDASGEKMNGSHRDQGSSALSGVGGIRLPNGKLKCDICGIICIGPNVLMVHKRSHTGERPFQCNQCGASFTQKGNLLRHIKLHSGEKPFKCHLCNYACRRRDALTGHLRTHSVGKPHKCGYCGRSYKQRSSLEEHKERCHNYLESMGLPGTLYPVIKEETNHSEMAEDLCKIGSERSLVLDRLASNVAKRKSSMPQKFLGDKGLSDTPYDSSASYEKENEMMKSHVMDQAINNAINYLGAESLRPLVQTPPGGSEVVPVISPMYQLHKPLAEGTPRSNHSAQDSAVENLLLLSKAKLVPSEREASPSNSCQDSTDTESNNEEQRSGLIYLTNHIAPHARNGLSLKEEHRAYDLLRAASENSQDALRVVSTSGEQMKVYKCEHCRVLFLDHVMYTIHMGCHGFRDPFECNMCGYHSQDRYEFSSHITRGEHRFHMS
T1 sequence (Q96SW2 whole entry): as the sequence (Q96SW2 whole entry) above
T1 sequence (Q16531 whole entry partner): as the sequence (Q16531 whole entry partner) above
T3 sequence (P15170 whole entry): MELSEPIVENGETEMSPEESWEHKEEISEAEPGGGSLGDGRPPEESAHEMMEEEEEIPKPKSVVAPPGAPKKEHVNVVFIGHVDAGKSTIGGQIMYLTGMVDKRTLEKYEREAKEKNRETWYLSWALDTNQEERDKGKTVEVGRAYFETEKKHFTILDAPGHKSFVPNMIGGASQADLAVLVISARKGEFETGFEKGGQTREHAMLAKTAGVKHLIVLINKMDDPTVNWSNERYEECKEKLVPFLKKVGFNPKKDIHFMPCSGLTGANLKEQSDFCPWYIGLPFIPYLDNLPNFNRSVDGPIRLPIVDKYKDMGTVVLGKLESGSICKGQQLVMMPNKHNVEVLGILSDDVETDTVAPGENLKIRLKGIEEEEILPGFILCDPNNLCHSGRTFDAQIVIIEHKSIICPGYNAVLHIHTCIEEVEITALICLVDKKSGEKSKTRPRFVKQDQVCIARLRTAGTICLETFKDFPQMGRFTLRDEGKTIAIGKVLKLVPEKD
T3 sequence (Q96SW2 whole entry): as the sequence (Q96SW2 whole entry) above
T3 sequence (Q16531 whole entry partner): as the sequence (Q16531 whole entry partner) above

Row | Compound | Degradation of substrate protein IKZF1 (substrate protein remaining %) (IKZF1) | Degradation of substrate protein IKZF3 (substrate protein remaining %) (IKZF3) | Degradation of substrate protein GSPT1 (substrate protein remaining %) (GSPT1) | Degradation of substrate protein WEE1 (substrate protein remaining %) (WEE1) | Degradation of substrate protein CK1α (substrate protein remaining %) (CK1α) | Degradation of substrate protein IKZF2 (substrate protein remaining %) (IKZF2)
1 | O=C1CCN(N2C(=O)c3cccc(F)c3C2=O)C(=O)N1 [GT-05576, 2-(2,4-dioxotetrahydropyrimidin-1(2H)-yl)-4-fluoroisoindoline-1,3-dione] | B (80%<substrate protein remaining %≤100%) | A (0%≤substrate protein remaining %≤80%) | A (0%≤substrate protein remaining %≤80%) | A (0%≤substrate protein remaining %≤80%) | A (0%≤substrate protein remaining %≤80%) | A (0%≤substrate protein remaining %≤80%)
2 | O=CC1CCN(c2ccc3c(c2)C(=O)N(N2CCC(=O)NC2=O)C3=O)CC1 [GT-05580, 1-(2-(2,4-dioxotetrahydropyrimidin-1(2H)-yl)-1,3-dioxoisoindolin-5-yl)piperidine-4-carbaldehyde] | B (80%<substrate protein remaining %≤100%) | A (0%≤substrate protein remaining %≤80%) | A (0%≤substrate protein remaining %≤80%) | A (0%≤substrate protein remaining %≤80%) | A (0%≤substrate protein remaining %≤80%) | A (0%≤substrate protein remaining %≤80%)
3 | O=C1CCN(N2C(=O)c3ccc(N4CCNCC4)cc3C2=O)C(=O)N1 [GT-05581, 2-(2,4-dioxotetrahydropyrimidin-1(2H)-yl)-5-(piperazin-1-yl)isoindoline-1,3-dione] | B (80%<substrate protein remaining %≤100%) | A (0%≤substrate protein remaining %≤80%) | A (0%≤substrate protein remaining %≤80%) | A (0%≤substrate protein remaining %≤80%) | A (0%≤substrate protein remaining %≤80%) | B (80%<substrate protein remaining %≤100%)
4 | O=C1CCN(N2C(=O)c3ccc(N4C[C@@H]5C[C@H]4CN5)cc3C2=O)C(=O)N1 [GT-05582, 5-((1S, 4S)-2,5-diazabicyclo[2.2.1]heptan-2-yl)-2-(2,4-dioxotetrahydropyrimidin-1(2H)-yl)isoindoline-1,3-dione] | B (80%<substrate protein remaining %≤100%) | A (0%≤substrate protein remaining %≤80%) | A (0%≤substrate protein remaining %≤80%) | A (0%≤substrate protein remaining %≤80%) | A (0%≤substrate protein remaining %≤80%) | A (0%≤substrate protein remaining %≤80%)
5 | O=C1CCN(N2C(=O)c3ccc(N4C5CNCC4C5)cc3C2=O)C(=O)N1 [GT-05588, 5-(3,6-diazabicyclo[3.1.1]heptan-6-yl)-2-(2,4-dioxotetrahydropyrimidin-1(2H)-yl)isoindoline-1,3-dione] | B (80%<substrate protein remaining %≤100%) | A (0%≤substrate protein remaining %≤80%) | B (80%<substrate protein remaining %≤100%) | B (80%<substrate protein remaining %≤100%) | B (80%<substrate protein remaining %≤100%) | B (80%<substrate protein remaining %≤100%)
6 | O=C1CCN(N2C(=O)c3ccc(N4CC5CCC(C4)N5)cc3C2=O)C(=O)N1 [GT-05589, 5-(3,8-diazabicyclo[3.2.1]octan-3-yl)-2-(2,4-dioxotetrahydropyrimidin-1(2H)-yl)isoindoline-1,3-dione] | B (80%<substrate protein remaining %≤100%) | A (0%≤substrate protein remaining %≤80%) | B (80%<substrate protein remaining %≤100%) | B (80%<substrate protein remaining %≤100%) | B (80%<substrate protein remaining %≤100%) | B (80%<substrate protein remaining %≤100%)
7 | O=CC1CCN(c2cccc3c2C(=O)N(N2CCC(=O)NC2=O)C3=O)CC1 [GT-05590, 1-(2-(2,4-dioxotetrahydropyrimidin-1(2H)-yl)-1,3-dioxoisoindolin-4-yl)piperidine-4-carbaldehyde] | B (80%<substrate protein remaining %≤100%) | A (0%≤substrate protein remaining %≤80%) | B (80%<substrate protein remaining %≤100%) | B (80%<substrate protein remaining %≤100%) | B (80%<substrate protein remaining %≤100%) | B (80%<substrate protein remaining %≤100%)
8 | O=C1CCN(N2C(=O)c3cccc(N4CCNCC4)c3C2=O)C(=O)N1 [GT-05591, 2-(2,4-dioxotetrahydropyrimidin-1(2H)-yl)-4-(piperazin-1-yl)isoindoline-1,3-dione] | B (80%<substrate protein remaining %≤100%) | A (0%≤substrate protein remaining %≤80%) | B (80%<substrate protein remaining %≤100%) | B (80%<substrate protein remaining %≤100%) | B (80%<substrate protein remaining %≤100%) | B (80%<substrate protein remaining %≤100%)
9 | O=C1CCN(N2C(=O)c3ccc(N4CCNCC4)c(F)c3C2=O)C(=O)N1 [GT-05592, 2-(2,4-dioxotetrahydropyrimidin-1(2H)-yl)-4-fluoro-5-(piperazin-1-yl)isoindoline-1,3-dione] | B (80%<substrate protein remaining %≤100%) | A (0%≤substrate protein remaining %≤80%) | B (80%<substrate protein remaining %≤100%) | B (80%<substrate protein remaining %≤100%) | B (80%<substrate protein remaining %≤100%) | B (80%<substrate protein remaining %≤100%)
10 | O=C1CCN(N2C(=O)c3cc(N4CCNCC4)cc(F)c3C2=O)C(=O)N1 [GT-05593, 2-(2,4-dioxotetrahydropyrimidin-1(2H)-yl)-4-fluoro-6-(piperazin-1-yl)isoindoline-1,3-dione] | B (80%<substrate protein remaining %≤100%) | B (80%<substrate protein remaining %≤100%) | A (0%≤substrate protein remaining %≤80%) | B (80%<substrate protein remaining %≤100%) | B (80%<substrate protein remaining %≤100%) | A (0%≤substrate protein remaining %≤80%)
11 | O=C1CCN(N2C(=O)c3ccc(N4CCC(N5CCNCC5)CC4)cc3C2=O)C(=O)N1 [GT-05594, 2-(2,4-dioxotetrahydropyrimidin-1(2H)-yl)-5-(4-(piperazin-1-yl)piperidin-1-yl)isoindoline-1,3-dione] | B (80%<substrate protein remaining %≤100%) | B (80%<substrate protein remaining %≤100%) | A (0%≤substrate protein remaining %≤80%) | B (80%<substrate protein remaining %≤100%) | B (80%<substrate protein remaining %≤100%) | A (0%≤substrate protein remaining %≤80%)
